# Measured values as given in patent publication US8575201B2 (Boehringer Ingelheim International GmbH, priority 2010, dated 2013).
# Assays:
# [1] = target: recombinant human FLAP protein (Homo sapiens (Human), UniProt P20292); assay: FLAP binding assay (Scintillation Proximity Assay, displacement of [125I]L-691,831); conditions: read-out: FLAP SPA IC50
# In short: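 Scintillation proximity displacement of an iodinated (125I) FLAP inhibitor by test compounds, using 100,000×g membrane fraction from lysed cells. Final beads 200 μg/well and protein 5 μg/well; plates shaken 2 h before reading.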
# [2] = tested on: synthesis of LTB4 in human whole blood; assay: Human whole blood LTB4 production inhibition assay; format: cell-based; conditions: calcimycin stimulated, read-out: hWB LTB4 IC50
# In short: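 Heparinized human whole blood preincubated with compound 15 min at 37 °C, then stimulated with calcimycin (20 μM final) for 30 min at 37 °C. Plasma LTB4 measured after low-speed centrifugation by antibody-based homogeneous time-resolved fluorescence.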
# recombinant human FLAP protein, sequence (P20292 whole entry): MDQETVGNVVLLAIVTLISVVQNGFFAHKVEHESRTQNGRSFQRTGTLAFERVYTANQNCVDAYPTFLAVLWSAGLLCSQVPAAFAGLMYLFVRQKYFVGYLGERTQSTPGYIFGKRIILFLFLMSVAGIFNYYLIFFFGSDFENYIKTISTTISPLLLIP
SMILES,IC50 [1] [nM],IC50 [2] [nM]
"Cn1cnc(-c2nc(C3(c4ccc(-c5cnc(N)nc5)nc4)CCC3)no2)c1 [Example 131, 5-(5-{1-[5-(1-methyl-1H-imidazol-4-yl)-1,2,4-oxadiazol-3-yl]cyclobutyl}pyridin-2-yl)pyrimidin-2-amine]",52,300
"Nc1ncc(-c2ccc(C3(c4noc(-c5cn[nH]c5)n4)CCC3)nc2)cn1 [Example 132, 5-(6-{1-[5-(1H-pyrazol-4-yl)-1,2,4-oxadiazol-3-yl]cyclobutyl}pyridin-3-yl)pyrimidin-2-amine]",46,370
"Cc1cc(-c2nc(C3(c4ccc(-c5cnc(N)nc5)cn4)CCC3)no2)[nH]n1 [Example 133, 5-(6-{1-[5-(3-methyl-1H-pyrazol-5-yl)-1,2,4-oxadiazol-3-yl]cyclobutyl}pyridin-3-yl)pyrimidin-2-amine]",43,340
"Cn1cc(-c2nc(C3(c4ccc(-c5cnc(N)nc5)cn4)CCC3)no2)cn1 [Example 134, 5-(6-{1-[5-(1-methyl-1H-pyrazol-4-yl)-1,2,4-oxadiazol-3-yl]cyclobutyl}pyridin-3-yl)pyrimidin-2-amine]",81,790
"Cc1cc(-c2nc(C3(c4ccc(-c5cnc(N)nc5)cn4)CCOCC3)no2)n(C)n1 [Example 136, 5-(6-{4-[5-(1,3-dimethyl-1H-pyrazol-5-yl)-1,2,4-oxadiazol-3-yl]tetrahydro-2H-pyran-4-yl}pyridin-3-yl)pyrimidin-2-amine]",540,> 5000
"Nc1ncc(-c2ccc(C3(c4noc(-c5cccnc5)n4)CCOCC3)nc2)cn1 [Example 137, 5-(6-{4-[5-(pyridin-3-yl)-1,2,4-oxadiazol-3-yl]tetrahydro-2H-pyran-4-yl}pyridin-3-yl)pyrimidin-2-amine]",580,3000
"Nc1ncc(-c2ccc(C3(c4noc(-c5ccncc5)n4)CCOCC3)nc2)cn1 [Example 138, 5-(6-{4-[5-(pyridin-4-yl)-1,2,4-oxadiazol-3-yl]tetrahydro-2H-pyran-4-yl}pyridin-3-yl)pyrimidin-2-amine]",970,> 5000
"Nc1ncc(-c2ccc(C3(c4noc(-c5cnn(C6CCS(=O)(=O)C6)c5)n4)CCC3)cn2)cn1 (stereo not shown) [Example 139, 5-[5-(1-{5-[1-(1,1-dioxidotetrahydrothiophen-3-yl)-1H-pyrazol-4-yl]-1,2,4-oxadiazol-3-yl}cyclobutyl)pyridin-2-yl]pyrimidin-2-amine]",28,340
"Nc1ncc(-c2ccc(C3(c4noc(-c5cnn(CCN6CCOCC6)c5)n4)CCC3)cn2)cn1 [Example 140, 5-{5-[1-(5-{1-[2-(morpholin-4-yl)ethyl]-1H-pyrazol-4-yl}-1,2,4-oxadiazol-3-yl)cyclobutyl]pyridin-2-yl}pyrimidin-2-amine]",15,110
"N#CCn1cc(-c2nc(C3(c4ccc(-c5cnc(N)nc5)nc4)CCC3)no2)cn1 [Example 141, [4-(3-{1-[6-(2-aminopyrimidin-5-yl)pyridin-3-yl]cyclobutyl}-1,2,4-oxadiazol-5-yl)-1H-pyrazol-1-yl]acetonitrile]",11,85
"CN(C)CCn1cc(-c2nc(C3(c4ccc(-c5cnc(N)nc5)nc4)CCC3)no2)cn1 [Example 142, 5-{5-[1-(5-{1-[2-(dimethylamino)ethyl]-1H-pyrazol-4-yl}-1,2,4-oxadiazol-3-yl)cyclobutyl]pyridin-2-yl}pyrimidin-2-amine]",16,250
"CN(C(=O)Cn1cc(-c2nc(C3(c4ccc(-c5cnc(N)nc5)nc4)CCC3)no2)cn1)C(C)(C)C [Example 143, 2-[4-(3-{1-[6-(2-aminopyrimidin-5-yl)pyridin-3-yl]cyclobutyl}-1,2,4-oxadiazol-5-yl)-1H-pyrazol-1-yl]-N-tert-butyl-N-methylacetamide]",14,260
Nc1cnc(-c2ccc(C3(c4noc(-c5cnn(C6COC6)c5)n4)CCC3)cn2)cn1 [Example 145],8.3,29
"CC(C)(O)Cn1cc(-c2nc(C3(c4ccc(-c5cnc(N)cn5)nc4)CCC3)no2)cn1 [Example 146, 1-[4-(3-{1-[6-(5-amino-pyrazin-2-yl)-pyridin-3-yl]-cyclobutyl}-[1,2,4]oxadiazol-5-yl)-pyrazol-1-yl]-2-methyl-propan-2-ol]",15,43
"CC(C)(Cn1cc(-c2nc(C3(c4ccc(-c5cnc(N)nc5)nc4)CCC3)no2)cn1)C(N)=O [Example 147, 3-[4-(3-{1-[6-(2-amino-pyrimidin-5-yl)-pyridin-3-yl]-cyclobutyl}-[1,2,4]oxadiazol-5-yl)-pyrazol-1-yl]-2,2-dimethyl-propionamide]",65,340
"CC(C)(C#N)Cn1cc(-c2nc(C3(c4ccc(-c5cnc(N)nc5)nc4)CCC3)no2)cn1 [Example 148, 3-[4-(3-{1-[6-(2-amino-pyrimidin-5-yl)-pyridin-3-yl]-cyclobutyl}-[1,2,4]oxadiazol-5-yl)-pyrazol-1-yl]-2,2-dimethyl-propionitrile]",25,200
"CC(C)(C(N)=O)n1cc(-c2nc(C3(c4ccc(-c5cnc(N)nc5)nc4)CCC3)no2)cn1 [Example 149, 2-[4-(3-{1-[6-(2-amino-pyrimidin-5-yl)-pyridin-3-yl]-cyclobutyl}-[1,2,4]oxadiazol-5-yl)-pyrazol-1-yl]-isobutyramide]",160,430
"CC(C)(N)Cn1cc(-c2nc(C3(c4ccc(-c5cnc(N)nc5)nc4)CCC3)no2)cn1 [Example 150, 5-[5-(1-{5-[1-(2-amino-2-methyl-propyl)-1H-pyrazol-4-yl]-[1,2,4]oxadiazol-3-yl}-cyclobutyl)-pyridin-2-yl]-pyrimidin-2-ylamine]",68,370
"CC(C)(C#N)n1cc(-c2nc(C3(c4ccc(-c5cnc(N)nc5)nc4)CCC3)no2)cn1 [Example 151, 2-[4-(3-{1-[6-(2-amino-pyrimidin-5-yl)-pyridin-3-yl]-cyclobutyl}-[1,2,4]oxadiazol-5-yl)-pyrazol-1-yl]-2-methyl-propionitrile]",18,94
"Nc1ccc(-c2ccc(C3(c4noc(-c5cnn(C6COC6)c5)n4)CCC3)cn2)cn1 [Example 152, 5-{1-[5-(1-oxetan-3-yl-1H-pyrazol-4-yl)-[1,2,4]oxadiazol-3-yl]-cyclobutyl}-[2,3′]bipyridinyl-6′-ylamine]",13,100
"CC(C)(O)Cn1cc(-c2nc(C3(c4ccc(-c5ccc(N)nc5)nc4)CCC3)no2)cn1 [Example 153, 1-(4-{3-[1-(6′-amino-[2,3′]bipyridinyl-5-yl)-cyclobutyl]-[1,2,4]oxadiazol-5-yl}-pyrazol-1-yl)-2-methyl-propan-2-ol]",34,190
"Nc1ncc(-c2ccc(C3(c4noc(N5CCC(O)CC5)n4)CCC3)cn2)cn1 [Example 154, 1-(3-{1-[6-(2-Amino-pyrimidin-5-yl)-pyridin-3-yl]-cyclobutyl}-[1,2,4]oxadiazol-5-yl)-piperidin-4-ol]",170,590
"Nc1ncc(-c2ccc(C3(c4noc(-c5cnn(CC(=O)NC6CC6)c5)n4)CCC3)cn2)cn1 [Example 155, 2-[4-(3-{1-[6-(2-Amino-pyrimidin-5-yl)-pyridin-3-yl]-cyclobutyl}-[1,2,4]oxadiazol-5-yl)-pyrazol-1-yl]-N-cyclopropyl-acetamide]",63,550
"Nc1ncc(-c2ccc(C3(c4noc(-c5cnn(CC(=O)NCC6CCCO6)c5)n4)CCC3)cn2)cn1 (stereo not shown) [Example 156, 2-[4-(3-{1-[6-(2-amino-pyrimidin-5-yl)-pyridin-3-yl]-cyclobutyl}-[1,2,4]oxadiazol-5-yl)-pyrazol-1-yl]-N-(tetrahydro-furan-2-ylmethyl)-acetamide]",97,620
"CC(C)NC(=O)Cn1cc(-c2nc(C3(c4ccc(-c5cnc(N)nc5)nc4)CCC3)no2)cn1 [Example 157, 2-[4-(3-{1-[6-(2-amino-pyrimidin-5-yl)-pyridin-3-yl]-cyclobutyl}-[1,2,4]oxadiazol-5-yl)-pyrazol-1-yl]-N-isopropyl-acetamide]",79,560
"CN(CC1CCCO1)C(=O)Cn1cc(-c2nc(C3(c4ccc(-c5cnc(N)nc5)nc4)CCC3)no2)cn1 (stereo not shown) [Example 159, 2-[4-(3-{1-[6-(2-amino-pyrimidin-5-yl)-pyridin-3-yl]-cyclobutyl}-[1,2,4]oxadiazol-5-yl)-pyrazol-1-yl]-N-methyl-N-(tetrahydro-furan-2-ylmethyl)-acetamide]",83,510
"CN(C(=O)Cn1cc(-c2nc(C3(c4ccc(-c5cnc(N)nc5)nc4)CCC3)no2)cn1)C1CC1 [Example 160, 2-[4-(3-{1-[6-(2-amino-pyrimidin-5-yl)-pyridin-3-yl]-cyclobutyl}-[1,2,4]oxadiazol-5-yl)-pyrazol-1-yl]-N-cyclopropyl-N-methyl-acetamide]",95,540
"COC1CCN(C(=O)Cn2cc(-c3nc(C4(c5ccc(-c6cnc(N)nc6)nc5)CCC4)no3)cn2)C1 (stereo not shown) [Example 161, 2-[4-(3-{1-[6-(2-amino-pyrimidin-5-yl)-pyridin-3-yl]-cyclobutyl}-[1,2,4]oxadiazol-5-yl)-pyrazol-1-yl]-1-(3-methoxy-pyrrolidin-1-yl)-ethanone]",250,1100
"CCN(C)C(=O)Cn1cc(-c2nc(C3(c4ccc(-c5cnc(N)nc5)nc4)CCC3)no2)cn1 [Example 162, 2-[4-(3-{1-[6-(2-amino-pyrimidin-5-yl)-pyridin-3-yl]-cyclobutyl}-[1,2,4]oxadiazol-5-yl)-pyrazol-1-yl]-N-ethyl-N-methyl-acetamide]",130,490
